Test results taken from patent US5061714A, “Isoquinoline composition for the treatment of glaucoma or ocular hypertension” (priority 1989, dated 1991).
Counter-ions that a name gives are not always drawn.

Assay: Acute toxicity test (LD50) in mice
Conditions: mouse, in vivo
Description: 4-(3-tert.-Butylamino-2-hydroxypropoxy)-2-methyl-1-isoquinolinone hydrochloride and 4-(3-tert.-butylamino-2-hydroxypropoxy)-1-isoquinolinonehydrochloride, respectively were administered to mice to determine the LD50 value.

Row | SMILES | LD50 (ip, intraperitoneal, female) [mg/kg] | LD50 (ip, intraperitoneal, male) [mg/kg] | LD50 (po, female) [mg/kg] | LD50 (po, male) [mg/kg]
1 | Cl.Cn1cc(OCC(O)CNC(C)(C)C)c2ccccc2c1=O (centres unmarked) [4-(3-tert.-butylamino-2-hydroxypropoxy)-2-methyl-1-isoquinolinone hydrochloride] | 557 | 578 | 1290 | 1390
2 | CC(C)(C)NCC(O)COc1c[nH]c(=O)c2ccccc12 (centres unmarked) [4-(3-tert.-butylamino-2-hydroxypropoxy)-1-isoquinolinonehydrochloride] | 367 | 382 | 2470 | 2810
